Laboratory results taken from PubChem BioAssay (NCI).
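Five compound concentrations were applied to cells in 96-well plates for 48 hours; endpoints were derived by simple linear interpolation of the resulting dose-response curve. GI50 is the concentration that inhibits growth by half. TGI: concentration producing complete growth inhibition.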

Key:
Assay in all cases: NCI anticancer screen, dose series, 48 h
786-0 renal = tested on: 786-0 renal
A498 renal = tested on: A498 renal
A549 NSCLC = tested on: A549 NSCLC
ACHN renal = tested on: ACHN renal
BT-549 breast = tested on: BT-549 breast
COLO 205 colon = tested on: COLO 205 colon
DU-145 prostate = tested on: DU-145 prostate
EKVX NSCLC = tested on: EKVX NSCLC
HCC-2998 colon = tested on: HCC-2998 colon
HCT-116 colon = tested on: HCT-116 colon
HCT-15 colon = tested on: HCT-15 colon
HL-60(TB) leukemia = tested on: HL-60(TB) leukemia
HOP-62 NSCLC = tested on: HOP-62 NSCLC
HOP-92 NSCLC = tested on: HOP-92 NSCLC
HS 578T breast = tested on: HS 578T breast
HT29 colon = tested on: HT29 colon
K-562 leukemia = tested on: K-562 leukemia
LOX IMVI melanoma = tested on: LOX IMVI melanoma
M14 melanoma = tested on: M14 melanoma
MALME-3M melanoma = tested on: MALME-3M melanoma
MCF7 breast = tested on: MCF7 breast
MDA-MB-231 breast = tested on: MDA-MB-231 breast
MDA-MB-435 = tested on: MDA-MB-435
MOLT-4 leukemia = tested on: MOLT-4 leukemia
NCI-H226 lung = tested on: NCI-H226 lung
NCI-H23 lung = tested on: NCI-H23 lung
NCI-H460 lung = tested on: NCI-H460 lung
NCI-H522 lung = tested on: NCI-H522 lung
NCI/ADR-RES ovarian = tested on: NCI/ADR-RES ovarian
OVCAR-4 ovarian = tested on: OVCAR-4 ovarian
OVCAR-5 ovarian = tested on: OVCAR-5 ovarian
OVCAR-8 ovarian = tested on: OVCAR-8 ovarian
PC-3 prostate = tested on: PC-3 prostate
RXF 393 renal = tested on: RXF 393 renal
SF-268 CNS = tested on: SF-268 CNS
SF-539 CNS = tested on: SF-539 CNS
SK-MEL-2 melanoma = tested on: SK-MEL-2 melanoma
SK-MEL-28 melanoma = tested on: SK-MEL-28 melanoma
SK-MEL-5 melanoma = tested on: SK-MEL-5 melanoma
SK-OV-3 ovarian = tested on: SK-OV-3 ovarian
SN12C renal = tested on: SN12C renal
SNB-19 CNS = tested on: SNB-19 CNS
SNB-75 CNS = tested on: SNB-75 CNS
SW-620 colon = tested on: SW-620 colon
T-47D breast = tested on: T-47D breast
TK-10 renal = tested on: TK-10 renal
U251 CNS = tested on: U251 CNS
UACC-257 melanoma = tested on: UACC-257 melanoma
UACC-62 melanoma = tested on: UACC-62 melanoma
UO-31 renal = tested on: UO-31 renal
CAKI-1 renal = tested on: CAKI-1 renal
CCRF-CEM leukemia = tested on: CCRF-CEM leukemia
IGROV1 ovarian = tested on: IGROV1 ovarian
KM12 colon = tested on: KM12 colon
OVCAR-3 ovarian = tested on: OVCAR-3 ovarian
RPMI-8226 leukemia = tested on: RPMI-8226 leukemia
SF-295 CNS = tested on: SF-295 CNS

CC1CCC(C(C)C2C(O)CC3C4CC=C5CC(O)CCC5(C)C4CCC32C)NC1 (configuration not stated)
TGI (786-0 renal): 89.9 µM | TGI (A498 renal): > 100 µM | TGI (A549 NSCLC): > 100 µM | TGI (ACHN renal): > 100 µM | TGI (BT-549 breast): > 100 µM | TGI (COLO 205 colon): > 100 µM | TGI (DU-145 prostate): > 100 µM | TGI (EKVX NSCLC): > 100 µM | TGI (HCC-2998 colon): 53.1 µM | TGI (HCT-116 colon): > 100 µM | TGI (HCT-15 colon): > 100 µM | TGI (HL-60(TB) leukemia): 52.8 µM | TGI (HOP-62 NSCLC): 66 µM | TGI (HOP-92 NSCLC): 69.8 µM | TGI (HS 578T breast): > 100 µM | TGI (HT29 colon): > 100 µM | TGI (K-562 leukemia): > 100 µM | TGI (LOX IMVI melanoma): 51 µM | TGI (M14 melanoma): > 100 µM | TGI (MALME-3M melanoma): 55.2 µM | TGI (MCF7 breast): > 100 µM | TGI (MDA-MB-231 breast): 81.6 µM | TGI (MDA-MB-435): 65.8 µM | TGI (MOLT-4 leukemia): 35.8 µM | TGI (NCI-H226 lung): > 100 µM | TGI (NCI-H23 lung): > 100 µM | TGI (NCI-H460 lung): > 100 µM | TGI (NCI-H522 lung): > 100 µM | TGI (NCI/ADR-RES ovarian): 58.2 µM | TGI (OVCAR-4 ovarian): 53.4 µM | TGI (OVCAR-5 ovarian): > 100 µM | TGI (OVCAR-8 ovarian): 29.3 µM | TGI (PC-3 prostate): 95.4 µM | TGI (RXF 393 renal): > 100 µM | TGI (SF-268 CNS): > 100 µM | TGI (SF-539 CNS): > 100 µM | TGI (SK-MEL-2 melanoma): > 100 µM | TGI (SK-MEL-28 melanoma): > 100 µM | TGI (SK-MEL-5 melanoma): > 100 µM | TGI (SK-OV-3 ovarian): > 100 µM | TGI (SN12C renal): 47.2 µM | TGI (SNB-19 CNS): 74.5 µM | TGI (SNB-75 CNS): > 100 µM | TGI (SW-620 colon): > 100 µM | TGI (T-47D breast): > 100 µM | TGI (TK-10 renal): 30.4 µM | TGI (U251 CNS): 70.3 µM | TGI (UACC-257 melanoma): > 100 µM | TGI (UACC-62 melanoma): > 100 µM | TGI (UO-31 renal): > 100 µM

NS(=O)(=O)N(c1cc(C(F)(F)F)cc(C(F)(F)F)c1)C1CCN(Cc2ccc(C(F)(F)F)cc2)CC1
GI50 (786-0 renal): 7.47 µM | TGI (786-0 renal): 14.1 µM | GI50 (A498 renal): 5.61 µM | TGI (A498 renal): 12 µM | GI50 (A549 NSCLC): 7.35 µM | TGI (A549 NSCLC): 15.6 µM | GI50 (ACHN renal): 7.92 µM | TGI (ACHN renal): 14.6 µM | GI50 (BT-549 breast): 7.99 µM | TGI (BT-549 breast): 14.7 µM | GI50 (CAKI-1 renal): 5.04 µM | TGI (CAKI-1 renal): 11.1 µM | GI50 (CCRF-CEM leukemia): 8.98 µM | TGI (CCRF-CEM leukemia): 24.2 µM | GI50 (COLO 205 colon): 7.86 µM | TGI (COLO 205 colon): 14.6 µM | GI50 (DU-145 prostate): 7.87 µM | TGI (DU-145 prostate): 15.4 µM | GI50 (EKVX NSCLC): 7.18 µM | TGI (EKVX NSCLC): 15.2 µM | GI50 (HCC-2998 colon): 6.9 µM | TGI (HCC-2998 colon): 13.4 µM | GI50 (HCT-116 colon): 5.41 µM | TGI (HCT-116 colon): 11.4 µM | GI50 (HCT-15 colon): 5.88 µM | TGI (HCT-15 colon): 12.5 µM | GI50 (HL-60(TB) leukemia): 1.63 µM | TGI (HL-60(TB) leukemia): 7.84 µM | GI50 (HOP-62 NSCLC): 7.94 µM | TGI (HOP-62 NSCLC): 15 µM | GI50 (HS 578T breast): 6.34 µM | TGI (HS 578T breast): 22.9 µM | GI50 (HT29 colon): 2.89 µM | TGI (HT29 colon): 10.2 µM | GI50 (IGROV1 ovarian): 5.56 µM | TGI (IGROV1 ovarian): 11.6 µM | GI50 (K-562 leukemia): 0.409 µM | TGI (K-562 leukemia): 10.3 µM | GI50 (KM12 colon): 6.81 µM | TGI (KM12 colon): 14.9 µM | GI50 (LOX IMVI melanoma): 7.43 µM | TGI (LOX IMVI melanoma): 14 µM | GI50 (M14 melanoma): 7.57 µM | TGI (M14 melanoma): 14.5 µM | GI50 (MALME-3M melanoma): 7.47 µM | TGI (MALME-3M melanoma): 14.2 µM | GI50 (MCF7 breast): 6.09 µM | TGI (MCF7 breast): 12.3 µM | GI50 (MDA-MB-231 breast): 9.65 µM | TGI (MDA-MB-231 breast): 20.8 µM | GI50 (MDA-MB-435): 7.04 µM | TGI (MDA-MB-435): 13.6 µM | GI50 (MOLT-4 leukemia): 3.77 µM | TGI (MOLT-4 leukemia): 15.9 µM | GI50 (NCI-H226 lung): 7.9 µM | TGI (NCI-H226 lung): 15.5 µM | GI50 (NCI-H23 lung): 6.88 µM | TGI (NCI-H23 lung): 14 µM | GI50 (NCI-H460 lung): 7.49 µM | TGI (NCI-H460 lung): 16.4 µM | GI50 (NCI-H522 lung): 6.42 µM | TGI (NCI-H522 lung): 13.2 µM | GI50 (NCI/ADR-RES ovarian): 6.82 µM | TGI (NCI/ADR-RES ovarian): 13.3 µM | GI50 (OVCAR-3 ovarian): 6.23 µM | TGI (OVCAR-3 ovarian): 12.6 µM | GI50 (OVCAR-4 ovarian): 6.89 µM | TGI (OVCAR-4 ovarian): 14.5 µM | GI50 (OVCAR-5 ovarian): 7.88 µM | TGI (OVCAR-5 ovarian): 16 µM | GI50 (OVCAR-8 ovarian): 8.35 µM | TGI (OVCAR-8 ovarian): 17.4 µM | GI50 (PC-3 prostate): 4.56 µM | TGI (PC-3 prostate): 12.5 µM | GI50 (RPMI-8226 leukemia): 6.88 µM | TGI (RPMI-8226 leukemia): 20.3 µM | GI50 (RXF 393 renal): 5.89 µM | TGI (RXF 393 renal): 12.2 µM | GI50 (SF-268 CNS): 7.55 µM | TGI (SF-268 CNS): 17.9 µM | GI50 (SF-295 CNS): 6.82 µM | TGI (SF-295 CNS): 13.5 µM | GI50 (SF-539 CNS): 7.8 µM | TGI (SF-539 CNS): 15.3 µM | GI50 (SK-MEL-2 melanoma): 9.91 µM | TGI (SK-MEL-2 melanoma): 18.3 µM | GI50 (SK-MEL-28 melanoma): 8.5 µM | TGI (SK-MEL-28 melanoma): 17.7 µM | GI50 (SK-MEL-5 melanoma): 7.63 µM | TGI (SK-MEL-5 melanoma): 14.7 µM | GI50 (SK-OV-3 ovarian): 9.26 µM | TGI (SK-OV-3 ovarian): 22.2 µM | GI50 (SN12C renal): 6.86 µM | TGI (SN12C renal): 13.7 µM | GI50 (SNB-19 CNS): 9.39 µM | TGI (SNB-19 CNS): 20.2 µM | GI50 (SNB-75 CNS): 2.86 µM | TGI (SNB-75 CNS): 13 µM | GI50 (SW-620 colon): 6.77 µM | TGI (SW-620 colon): 15.4 µM | GI50 (T-47D breast): 5.61 µM | TGI (T-47D breast): 11.9 µM | GI50 (TK-10 renal): 7.03 µM | TGI (TK-10 renal): 14.5 µM | GI50 (U251 CNS): 5.92 µM | TGI (U251 CNS): 12.7 µM | GI50 (UACC-257 melanoma): 7.54 µM | TGI (UACC-257 melanoma): 15 µM | GI50 (UACC-62 melanoma): 7.14 µM | TGI (UACC-62 melanoma): 16.3 µM | GI50 (UO-31 renal): 3.17 µM | TGI (UO-31 renal): 9.87 µM
